Patent US20120095046A1, “Amido-Isothiazole Compounds and Their Use as Inhibitors of 11Beta-HSD1 for the Treatment of Metabolic Syndrome and Related Disorders” (THE UNIVERSITY OF EDINBURGH, priority 2009, published 2012)

Columns and labels:
[1] = target: T1, human 11β-HSD2 (Homo sapiens, UniProt P80365); assay: Cellular in vitro 11β-HSD2 enzyme inhibition assay (CHO cells, TLC/phosphoimager); format: cell-based; conditions: CHO cells stably transfected with human 11β-HSD2; 22 nM tritiated cortisol, 16 hours
T1 construct: CHO cells stably transfected with the full-length gene coding for human 11β-HSD2 were used; expressed in transfected cells
T1 sequence (P80365 1-405): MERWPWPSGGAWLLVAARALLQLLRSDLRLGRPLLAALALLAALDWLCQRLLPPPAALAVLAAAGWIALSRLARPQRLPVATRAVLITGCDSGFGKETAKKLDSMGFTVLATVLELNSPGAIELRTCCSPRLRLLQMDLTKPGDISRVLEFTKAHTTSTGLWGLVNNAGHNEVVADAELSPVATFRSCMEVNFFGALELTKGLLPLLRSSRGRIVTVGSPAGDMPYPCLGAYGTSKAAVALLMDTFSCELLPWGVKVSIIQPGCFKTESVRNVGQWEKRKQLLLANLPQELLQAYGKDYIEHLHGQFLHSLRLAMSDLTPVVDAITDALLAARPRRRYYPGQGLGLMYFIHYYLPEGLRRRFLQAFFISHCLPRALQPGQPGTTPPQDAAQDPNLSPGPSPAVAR
Protocol: Cellular In Vitro 11β-HSD2 Enzyme Inhibition Assay
For measurement of inhibition of 11β-HSD2, CHO cells stably transfected with the full-length gene coding for human 11β-HSD2 were used. Assays were carried out in 96-well microplates containing 1×10^5 cells/well. Controls and compounds were plated as above, so that the final DMSO concentration in each well was 1%. To initiate the assay, 90 μL of a solution of HAMS F-12 medium containing 1% glutamine, 1% penicillin and streptomycin, and 22 nM tritiated cortisol was added to each well of the assay plate. The plate was then incubated in 5% CO2, 95% O2 at 37° C. for 16 hours.
The assay solutions were transferred to glass tubes and 20 μL ethyl acetate added to each tube. Each tube was vortexed thoroughly and the upper layer containing the tritiated steroid transferred to a fresh glass tube. The solvent was evaporated by placing the tubes in a heating block at 65° C. under a stream of Nitrogen gas. 20 μL ethanol was added to each of the dried samples and vortexed briefly. Each sample was applied to a silica TLC plate and the plate dried. The plate was placed vertically in a glass tank containing 92% chloroform:8% ethanol and the solvent allowed to rise up the plate. The plate was dried, placed in an imaging cassette, and overlayed with a tritium imaging plate for 1-2 days. The amount of enzyme inhibition in each sample was determined by measuring the intensity of the substrate and product spots using a phosphoimager.
IC50 values for inhibitors were determined as described for 11β-HSD1.

[2] = target: T2, human 11β-HSD1 enzyme (Homo sapiens, UniProt P28845); assay: Cellular in vitro 11β-HSD1 enzyme inhibition assay (SPA, HEK293/11β-HSD1 cells); format: cell-based; conditions: HEK293 cells stably transfected with human 11β-HSD1; 22 nM tritiated cortisone, 2 hours
T2 construct: stably transfected with a construct containing the full-length gene coding for the human 11β-HSD1 enzyme; expressed in transfected cells; HEK293/11β-HSD1)
Protocol: Cellular In Vitro 11β-HSD1 Enzyme Inhibition Assay
Compounds were assessed by a Scintillation Proximity Assay (SPA) performed according to the following protocol:
HEK293 cells were stably transfected with a construct containing the full-length gene coding for the human 11β-HSD1 enzyme to create HEK293/11β-HSD1 cells. Cells were routinely cultured in DMEM containing 10% calf foetal serum, 1% glutamine, and 1% penicillin and streptomycin. Prior to assay, cells were plated at 2×10^4 cells/well in 96-well poly-D-Lys coated flat-bottomed microplates and incubated in 5% CO2, 95% O2 at 37° C. for 24 hours. The media in each well was removed immediately before assay.
Compounds to be tested were dissolved in DMSO at 10 mM and serially diluted into water containing 10% DMSO. Diluted compounds at a volume of 10 μL were added to wells of a 96-well V-bottomed microplate. A solution of DMEM, 1% glutamine, 1% penicillin and streptomycin, and 22 nM tritiated cortisone was prepared and 90 μL added to each well of the assay plate. This solution (100 μL/well) was transferred to the plate containing the cells. The plate was then incubated in 5% CO2, 95% O2 at 37° C. for 2 hours.
Following this incubation, 50 μL of the assay solution was transferred to each well of a 96-well scintillation microplate. A mixture consisting of anti-mouse YSi SPA beads, pre-mixed with anti-cortisol antibody in assay buffer (50 mM Tris.HCl, pH 7.0; 300 mM NaCl; 1 mM EDTA, 5% glycerol) was prepared and 50 μL added to each well of the scintillation microplate. An adhesive strip was applied to the microplate and the plate gently shaken for at least 2 hours at room temperature, and then spun briefly on a low speed centrifuge. The plate was read on a scintillation counter suitable for 96-well microplates. For the calculation of percentage inhibition, a series of wells were added to the plate that represented the assay maximum and the assay minimum: one set that contained substrate without cells (minimum) and another set that contained substrate and cells without any compound (maximum).
The calculation of median inhibitory concentration (IC50) values for the compounds was performed using GraphPad Prism® software. Dose-response curves for each compound were plotted as fractional inhibition and data fitted to the four parameter logistic equation.

T2 sequence (P28845 whole entry): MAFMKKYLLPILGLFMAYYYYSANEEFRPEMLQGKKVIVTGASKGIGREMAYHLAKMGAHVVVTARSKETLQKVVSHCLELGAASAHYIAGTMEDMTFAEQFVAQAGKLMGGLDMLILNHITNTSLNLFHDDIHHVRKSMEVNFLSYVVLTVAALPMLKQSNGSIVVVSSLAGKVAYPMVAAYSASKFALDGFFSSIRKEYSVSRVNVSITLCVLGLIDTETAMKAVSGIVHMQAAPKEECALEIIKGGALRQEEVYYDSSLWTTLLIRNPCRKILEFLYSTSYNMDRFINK

O=C(c1cc(-c2ccccc2)sn1)N1CCCC2CCCCC21 (stereo not drawn) [AA-02, (Octahydro-quinolin-1-yl)-(5-phenyl-isothiazol-3-yl)-methanone]
IC50 [1]: > 10000 nM | IC50 [2]: ≤ 500 nM

O=C(c1cc(-c2cn[nH]c2)sn1)N1CCC[C@@H]2CCCC[C@@H]21 [BB-01, (4aS,8aS)-Octahydro-quinolin-1-yl-[5-(1H-pyrazol-4-yl)-isothiazol-3-yl]-methanone]
IC50 [1]: > 10000 nM | IC50 [2]: 18 nM

O=C(c1cnsc1-c1ccccc1)N1CCCC2CCCCC21 (stereo not drawn) [AA-01, (Octahydro-quinolin-1-yl)-(5-phenyl-isothiazol-4-yl)-methanone]
IC50 [1]: > 10000 nM | IC50 [2]: 59 nM

O=C(c1cc(-c2cn[nH]c2)sn1)N1CCCC1c1ccc(F)cc1 (stereo not drawn) [BB-02, [2-(4-Fluoro-phenyl)-pyrrolidin-1-yl]-[5-(1H-pyrazol-4-yl)-isothiazol-3-yl]-methanone]
IC50 [1]: > 10000 nM | IC50 [2]: ≤ 500 nM

O=C1c2ccccc2C(=O)N1c1cc(C(=O)N2CCC[C@@H]3CCCC[C@@H]32)ns1 [BB-03, 2-[3-((4aS,8aS)-Octahydro-quinoline-1-carbonyl)-isothiazol-5-yl]-isoindole-1,3-dione]
IC50 [1]: > 10000 nM | IC50 [2]: ≤ 500 nM

O=C(c1cc(C2CCOCC2)sn1)N1CCC[C@@H]2CCCC[C@@H]21 [CC-01, (4aS,8aS)-Octahydro-quinolin-1-yl-[5-(tetrahydro-pyran-4-yl)-isothiazol-3-yl]-methanone]
IC50 [1]: > 10000 nM | IC50 [2]: 62 nM
